For one experiment, the target named is T1, RORγ-LBD (Homo sapiens, UniProt P51449).
T1 construct: made in house; host or cells: SF9 cells (baculovirus); used as diluted lysate
T1 sequence (P51449 269-508 limits assumed): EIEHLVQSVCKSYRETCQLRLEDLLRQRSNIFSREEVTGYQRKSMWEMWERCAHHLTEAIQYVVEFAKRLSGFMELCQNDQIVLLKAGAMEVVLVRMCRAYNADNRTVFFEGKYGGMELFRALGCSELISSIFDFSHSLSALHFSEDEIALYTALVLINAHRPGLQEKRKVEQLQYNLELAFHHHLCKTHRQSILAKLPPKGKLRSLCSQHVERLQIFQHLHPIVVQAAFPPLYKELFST
Put plainly: RORγ-Ligand Binding Domain (LBD) TR-FRET Assay.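 On TR-FRET Assay Max Response: 665/615 nm signal ratio set to 100 without ursolic acid or test compound.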 The experiment is classed as biochemical. As to conditions: for TR-FRET Assay Max Response: maximum response. A digest of the protocol: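 Lysate from SF9 cells expressing His-RORγ-LBD is diluted to about 3 nM final in 50 mM Tris pH 7.0 assay buffer. A biotin-tagged SRC1 LXXLL peptide goes in at 200 nM final, plus ursolic acid at 2 μM final. Test compounds carry 1% DMSO final; signal read by TR-FRET.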
On the technique in general: TR-FRET usually uses a lanthanide donor and a delayed reading to cut background.

The next experiment deals with T2, Gal4-RORγ-LBD (Homo sapiens, UniProt P51449).
T2 construct: expressed in transfected cells
T2 sequence (P51449 269-508 limits assumed): T1 sequence (P51449 269-508 limits assumed)
Description: Gal4-RORγ Luciferase Reporter Assay in HEK-293T Cells. Particulars: HEK-293 cells; for Gal4-RORγ Assay Max Response: maximum response. It counts as cell-based. A digest of the protocol:
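Max Response was taken as the upper plateau of a 4-parameter logistic fit of luciferase signal, normalized to 100 for wells without ursolic acid or compound. Transiently Gal4-RORγ-LBD/Gal4-luc transfected HEK-293 cells carrying […] ursolic acid were incubated with test compounds (0.2% DMSO) overnight at 37 °C and read with One-Glo.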
(In general: Reporter assays use an easily measured gene product as a stand-in for the process of interest.)

The mark [1] stands for this setting: luciferase reporter, in presence of ursolic acid.
Where [2] appears, read: with 2 μM ursolic acid (RORγ antagonist), highest test concentration 10 μM.
Setting [3] is: ursolic acid present, luciferase readout.

In general, EC50 refers to the concentration needed to bring the measured effect to its halfway point.

Molecules are shown by their SMILES.

As for `C/C(=C\c1ccc2c(c1)C(S(=O)(=O)c1cccc(C(F)(F)F)c1)CC(CCC(=O)O)O2)c1c(F)cccc1Cl` (stereo not shown) [Example 186I, (E)-3-(6-(2-(2-chloro-6-fluorophenyl)prop-1-en-1-yl)-4-((3-(trifluoromethyl)phenyl)-sulfonyl)chroman-2-yl)propanoic acid], at RORγ-LBD (RORγ-LBD TR-FRET assay), the EC50 is less than 0.5 µM and the “TR-FRET Assay Max Response” value is reported as “** (a value in the range of greater than 90 to 150)”. Further, on Gal4-RORγ-LBD (setting [1]), the EC50 was less than 0.5 µM and the “Gal4-RORγ Assay Max Response” value was “** (a value in the range of greater than 90 to 150)”.
In the case of `CCOC(=O)C(C)(C)CC1CC(S(=O)(=O)c2ccc(F)c(OC)c2)c2cc(/C=C(\C)c3c(F)cccc3Cl)ccc2O1` (stereo not shown) [Example 186J, ethyl (E)-3-(6-(2-(2-chloro-6-fluorophenyl)prop-1-en-1-yl)-4-44-fluoro-3-methoxyphenyl)-sulfonyl)chroman-2-yl)-2,2-dimethylpropanoate], on RORγ-LBD (RORγ-LBD TR-FRET assay), the EC50 is less than 0.5 µM and the “TR-FRET Assay Max Response” value is reported as “** (a value in the range of greater than 90 to 150)”. At Gal4-RORγ-LBD (setting [1]), the EC50 lay within 0.5 to 5 µM and the “Gal4-RORγ Assay Max Response” value is “** (a value in the range of greater than 90 to 150)”.
Take `CCOC(=O)C(C)(C)C[C@H]1C[C@H](S(=O)(=O)c2cccc(C(F)(F)F)c2)c2cc(/C=C(\C)c3c(F)cccc3Cl)ccc2O1` [Example 186M, ethyl 3-((2S,45)-6-((E)-2-(2-chloro-6-fluorophenyl)prop-1-en-1-yl)-4-((3-(trifluoromethyl)-phenyl)sulfonyl)chroman-2-yl)-2,2-dimethylpropanoate]: at RORγ-LBD (RORγ-LBD TR-FRET assay), the EC50 was less than 0.5 µM and the “TR-FRET Assay Max Response” value is “*** (a value in the range of greater than 150 to 200)”. In addition, at Gal4-RORγ-LBD (setting [1]), the EC50 was less than 0.5 µM and the “Gal4-RORγ Assay Max Response” value is given as “* (a value in the range of 30 to 90)”.
Consider `C/C(=C\c1ccc2c(c1)C(S(=O)(=O)c1cccc(C(F)(F)F)c1)CC(CC(C)(C)C(=O)O)O2)c1c(F)cccc1Cl` (stereo not shown) [Example 186N, (E)-3-(6-(2-(2-chloro-6-fluorophenyl)prop-1-en-1-yl)-4-((3-(trifluoromethyl)phenyl)-sulfonyl)chroman-2-yl)-2,2-dimethylpropanoic acid], for which, on RORγ-LBD (RORγ-LBD TR-FRET assay), the EC50 was less than 0.5 µM and the “TR-FRET Assay Max Response” value is reported as “*** (a value in the range of greater than 150 to 200)”. Further, on Gal4-RORγ-LBD (setting [1]), the EC50 is less than 0.5 µM and the “Gal4-RORγ Assay Max Response” value is listed as “** (a value in the range of greater than 90 to 150)”.
`C/C(=C\c1ccc2c(c1)N(S(=O)(=O)c1cccc(C(F)(F)F)c1)CCS2)c1c(F)cccc1Cl` [Example 187, (E)-6-(2-(2-Chloro-6-fluorophenyl)prop-1-en-1-yl)-4-((3-(trifluoromethyl)phenyl)sulfonyl)-3,4-dihydro-2H-benzo[b][1,4]thiazine]: at RORγ-LBD (RORγ-LBD TR-FRET assay), the EC50 was less than 0.5 µM and the “TR-FRET Assay Max Response” value is given as “**** (a value greater than 200)”. On Gal4-RORγ-LBD (setting [1]), the EC50 was less than 0.5 µM and the “Gal4-RORγ Assay Max Response” value is “** (a value in the range of greater than 90 to 150)”.
Regarding `C/C(=C\c1ccc2c(c1)N(S(=O)(=O)c1cccc(C(F)(F)F)c1)CCC2=O)c1c(F)cccc1Cl` [Example 188, (E)-7-(2-(2-chloro-6-fluorophenyl)prop-1-en-1-yl)-1-((3-(trifluoromethyl)phenyl)sulfonyl)-2,3-dihydroquinolin-4(1H)-one], at RORγ-LBD (RORγ-LBD TR-FRET assay), the EC50 is less than 0.5 µM and the “TR-FRET Assay Max Response” value was “**** (a value greater than 200)”. In addition, at Gal4-RORγ-LBD (setting [1]), the EC50 is 0.5 to 5 µM and the “Gal4-RORγ Assay Max Response” value is on record as “** (a value in the range of greater than 90 to 150)”.
Regarding `C/C(=C\c1ccc2c(c1)N(S(=O)(=O)c1cccc(C(F)(F)F)c1)CCC2(F)F)c1c(F)cccc1Cl` [Example 189, (E)-7-(2-(2-Chloro-6-fluorophenyl)prop-1-en-1-yl)-4,4-difluoro-1-((3-(trifluoromethyl)phenyl)sulfonyl)-1,2,3,4-tetrahydroquinoline], on RORγ-LBD (RORγ-LBD TR-FRET assay), the EC50 was less than 0.5 µM and the “TR-FRET Assay Max Response” value is listed as “*** (a value in the range of greater than 150 to 200)”. In addition, at Gal4-RORγ-LBD (setting [1]), the EC50 lay in the range of 0.5 to 5 µM and the “Gal4-RORγ Assay Max Response” value was “** (a value in the range of greater than 90 to 150)”.
The matching figures for `COc1cc(S(=O)(=O)N2C[C@H](CCC(=O)O)Oc3ccc(/C=C(\C)C4CCCC4)cc32)ccc1F` [Example 191A, (S,E)-3-(6-(2-cyclopentylprop-1-en-1-yl)-4-((4-fluoro-3-methoxyphenyl)sulfonyl)-3,4-dihydro-2H-benzo[b][1,4]-oxazin-2-yl)propanoic acid]: less than 0.5 µM, “** (a value in the range of greater than 90 to 150)”, 0.5 to 5 µM and “** (a value in the range of greater than 90 to 150)”.
As for `CC/C(C)=C\c1ccc2c(c1)N(S(=O)(=O)c1cccc(C(F)(F)F)c1)C[C@H](CCC(=O)O)O2` [Example 191B, (S,Z)-3-(6-(2-methylbut-1-en-1-yl)-4-((3-(trifluoromethyl)-phenyl)sulfonyl)-3,4-dihydro-2H-benzo[b][1,4]oxazin-2-yl)propanoic acid], at RORγ-LBD (RORγ-LBD TR-FRET assay), the EC50 was less than 0.5 µM and the “TR-FRET Assay Max Response” value was “*** (a value in the range of greater than 150 to 200)”. In addition, at Gal4-RORγ-LBD (setting [1]), the EC50 lay within 0.5 to 5 µM and the “Gal4-RORγ Assay Max Response” value is “*** (a value in the range of greater than 150 to 200)”.
Take `CC/C(C)=C\c1ccc2c(c1)N(S(=O)(=O)c1cccc(C(F)(F)F)c1)C[C@H](CCC(=O)OC)O2` [Example 191C, methyl (S,Z)-3-(6-(2-methylbut-1-en-1-yl)-4-((3-(trifluoromethyl)phenyl)-sulfonyl)-3,4-dihydro-2H-benzo[b][1,4]oxazin-2-yl)propanoate]: at RORγ-LBD (RORγ-LBD TR-FRET assay), the EC50 was less than 0.5 µM and the “TR-FRET Assay Max Response” value is reported as “**** (a value greater than 200)”. For the same compound, on Gal4-RORγ-LBD (setting [1]), the EC50 was in the range of 0.5 to 5 µM and the “Gal4-RORγ Assay Max Response” value is listed as “** (a value in the range of greater than 90 to 150)”.
Regarding `CC/C(C)=C\c1ccc2c(c1)N(S(=O)(=O)c1cc(C(F)(F)F)cnc1OCCO)C[C@H](CCC(=O)O)O2` [Example 191D, (S,Z)-3-(4-((2-(2-hydroxyethoxy)-5-(trifluoromethyl)pyridin-3-yl)sulfonyl)-6-(2-methylbut-1-en-1-yl)-3,4-dihydro-2H-benzo[b][1,4]oxazin-2-yl)propanoic acid], the EC50 on RORγ-LBD (RORγ-LBD TR-FRET assay) was less than 0.5 µM; on Gal4-RORγ-LBD (setting [1]) it was more than 10 µM. Also, the “TR-FRET Assay Max Response” value on RORγ-LBD (RORγ-LBD TR-FRET assay) is on record as “** (a value in the range of greater than 90 to 150)”.
Regarding `CC/C(=C\c1ccc2c(c1)N(S(=O)(=O)c1cc(C(F)(F)F)cnc1OCCO)C[C@H](CCC(=O)O)O2)C(C)C` [Example 191E, (S,E)-3-(6-(2-ethyl-3-methylbut-1-en-1-yl)-4-((2-(2-hydroxy-ethoxy)-5-(trifluoromethyl)-pyridin-3-yl)sulfonyl)-3,4-dihydro-2H-benzo[b][1,4]oxazin-2-yl)propanoic acid], the EC50 was less than 0.5 µM at RORγ-LBD (setting [2]) and 0.5 to 5 µM on Gal4-RORγ-LBD (setting [3]).
In the case of `CC/C(=C\c1ccc2c(c1)N(S(=O)(=O)c1cc(C(F)(F)F)cnc1OCCO)C[C@H](CCC(=O)OC)O2)C(C)C` [Example 191F, methyl (S,E)-3-(6-(2-ethyl-3-methylbut-1-en-1-yl)-4-((2-(2-hydroxyethoxy)-5-(trifluoro-methyl)pyridin-3-yl)sulfonyl)-3,4-dihydro-2H-benzo[b][1,4]oxazin-2-yl)propanoate], the EC50 was less than 0.5 µM on RORγ-LBD (setting [2]) and 0.5 to 5 µM at Gal4-RORγ-LBD (setting [3]).
With `CC/C(=C\c1ccc2c(c1)N(S(=O)(=O)c1cccc(C(F)(F)F)c1)C[C@H](CCC(=O)O)O2)C(C)C` [Example 191G, (S,E)-3-(6-(2-ethyl-3-methylbut-1-en-1-yl)-4-((3-(trifluoromethyl)-phenyl)sulfonyl)-3,4-dihydro-2H-benzo[b][1,4]oxazin-2-yl)propanoic acid], the EC50 on RORγ-LBD (setting [2]) and at Gal4-RORγ-LBD (setting [3]) was less than 0.5 µM throughout.
As for `CC/C(=C\c1ccc2c(c1)N(S(=O)(=O)c1cccc(C(F)(F)F)c1)C[C@H](CCC(=O)OC)O2)C(C)C` [Example 191H, methyl (S,E)-3-(6-(2-ethyl-3-methylbut-1-en-1-yl)-4-((3-(trifluoromethyl)phenyl)sulfonyl)-3,4-dihydro-2H-benzo[b][1,4]-oxazin-2-yl)propanoate], the EC50 at RORγ-LBD (setting [2]) and at Gal4-RORγ-LBD (setting [3]) was less than 0.5 µM throughout.
As to `O=C(O)CC[C@H]1CN(S(=O)(=O)c2cccc(C(F)(F)F)c2)c2cc(C3=CCCC3)ccc2O1` [Example 192, (S)-3-(6-(cyclopent-1-en-1-yl)-4-((3-(trifluoromethyl)phenyl)sulfonyl)-3,4-dihydro-2H-benzo[b][1,4]oxazin-2-yl)propanoic acid], the EC50 at RORγ-LBD (setting [2]) is less than 0.5 µM; on Gal4-RORγ-LBD (setting [3]), 0.5 to 5 µM.
As to `O=C(O)CC[C@H]1CN(S(=O)(=O)c2cccc(C(F)(F)F)c2)c2cc(C3=CCCCC3)ccc2O1` [Example 193, (S)-3-(6-(cyclohex-1-en-1-yl)-4-((3-(trifluoromethyl)phenyl)sulfonyl)-3,4-dihydro-2H-benzo[b][1,4]oxazin-2-yl)propanoic acid], the EC50 at RORγ-LBD (setting [2]) and on Gal4-RORγ-LBD (setting [3]) was less than 0.5 µM each time.

The record behind these values is patent US9896441B2 (Lycera Corporation, priority 2014, dated 2018).
